Laboratory results as given in US9290529B2, “Carbonic anhydrase inhibitors and method of their production” (USTAV ORGANICKE CHEMIE A BIOCHEMIE AKADEMIE VED CESKE …, priority 2011, dated 2016).

Assays:
[1] = target: T1, human carbonic anhydrase II (hCA II) (Homo sapiens, UniProt P00918); test: Colorimetric carbonic anhydrase inhibition assay (CO2 hydration, phenol red), hCA II; format: biochemical; conditions: 0° C., HEPES pH 7.0
T1 construct: purchased Sigma Aldrich C6165
Description: (§1) The compounds were assayed for inhibition activity of two isoforms of human carbonic anhydrase: hCA II and hCA IX. The human carbonic anhydrase II (HCA II) was purchased from Sigma Aldrich (Cat. No. C6165) in the form of lyophilized protein, which was dissolved before use in 10 mmol·l^−1 HEPES pH 7.0 to a concentration of 300 μmol·l^−1 and further diluted as required. Human carbonic anhydrase IX (HCA IX) was prepared by recombinant expression system in insect (Drosophila expression system, Invitrogen). […] This protein was further purified from media by chelating chromatography carrier His-Select Nickel Affinity Gel (Sigma, Cat No. P6611) and gel chromatography (Superdex 200 GL 30/300, GE Healthcare) according to the manufacturer's recommendations.
(§2) The principle of the method is based on measuring the rate of acidification of the solution that is observed as the color-shift of the acid-base-indicator (fenol red). The reaction was conducted in a glass tube placed in an ice bath (0° C., all stock solutions and enzymes were kept at the same temperature). […] This was followed by a CO2 saturation (stream flow 50 ml/min.) using a needle (18 G) up to color transition of fenol-red from red to yellow (typically 60 seconds by default). […] End point of reaction was determined by visual comparison with reference tube containing acid-base indicator (0.01% (wt./vol.) Fenol-red) and the pH adjusted to 7.0. […] Molar activity was calculated according to the formula:
(§3) [formula] where tB is the time of negative control without enzyme and tS is the time measured with an enzyme sample (and inhibitor), nprot is the number of moles of protein present in the sample. The value of IC50 for the inhibitor concentration corresponds inhibitor contraction required to decrease the specific activity to half of the value of non-inhibited enzyme. Selectivity towards CA IX inhibitor was calculated as the ratio of IC50 values for inhibition of HCA II against the value of IC50 for inhibition CA IX enzyme.

[2] = target: T2, human carbonic anhydrase IX (hCA IX) (Homo sapiens, UniProt Q16790); test: Colorimetric carbonic anhydrase inhibition assay (CO2 hydration, phenol red), hCA IX; format: biochemical; conditions: for IC50: 0° C., HEPES pH 7.0, recombinant extracellular CA domain, read-out: IC50 (hCA IX); for Selectivity to hCA IX IC50 (hCA II)/IC50 (hCA IX): ratio of IC50 values
T2 construct: Construct contained the extracellular CA domain (amino acid residues 139-390) cloned into the pMT/BiP/V5-His vector; His tag (from vector pMT/BiP/V5-His) (C); BiP secretion signal (from vector pMT/BiP/V5-His) (N); made in house; host or cells: Drosophila expression system (Invitrogen), insect cells, secreted into SF 900 II medium
Description: as §1, §2, §3

HCT116 cells = test: Flow cytometric measurement of intracellular pH (pHi), HCT116 expressing CAIX; format: cell-based, human
Description: (§4) The effect of carborane CAIX (carbonic anhydrase IX) inhibitors was evaluated on colorectal cancer cell line HCT116 expressing CAIX enzyme versus CA IX negative cell line of T-lymphoblastic leukemia CCRF-CEM. Acetazolamide, a known inhibitor of CAIX, was used as a standard. HCT116/CCRF-CEM cells were cultivated in McCoy/RPMI Media supplemented with 10% FCS and antibiotics and seeded at high density ([…] per 3.5 cm dish) to induce pericellular hypoxia and thus stimulate CA IX expression. Measurement of pHi was assessed as described in Cianchi et al. [Cianchi F., et al. Selective inhibition of carbonic anhydrase IX decreases cell proliferation and induces […] apoptosis in human cancer cells. The Journal of Pharmacology and Experimental Therapeutics, 2010, Vol. 334, No. 3, 710-719].
(§5) […] The pHi was measured by flow cytometry in cell cultures pretreated with 10 μM of pH sensitive probe carboxyseminaphtorhoda-fluor-1-acetoxymethyl ester (SNARF, Invitrogen, CA) for 15 min at 37° C. After incubation, the cells were washed twice with PBS. Because the addition of bicarbonate can affect pHi, all incubation and cell washes were performed in bicarbonate-free buffer. SNARF was excited at 488 nm and emitted at 580 and 640 nm. The ratio of the emission wavelengths at 640/580 nm was then used to estimate the pHi from a calibration curve. The calibration curve was prepared by nigericin clamp technique. In this method, after the SNARF labeling of untreated cells, aliquots of cell suspensions were re-suspended in a high potassium containing buffer at specific pH (usually 6.8, 7.0, 7.2, 7.4, 7.6 and 7.8). The cell suspensions were then clamped at a specific pH value by the addition of 0.03 μM nigericin (Sigma-Aldrich). Nigericin is a ionophore that allows the exchange of H for K ions, thus abolishing the pH gradient across the cell membrane. When the internal and external K concentrations are approximately equal, the pH rapidly equilibrates to the pH of the bathing solution. A total of 20,000 events were acquired on a FACS ARIA II flow cytometer (Becton. Dickinson) for further analysis.
(§6) The fluorescent ratio values (640/580 nm) calculated for each pH point were further used to construct calibration curve in Prism software (GraphPad Software, Inc., San Diego, Calif.), from which the pHi values in treated cells were determined (Table 3).

CCRF-CEM cells = test: Flow cytometric measurement of intracellular pH (pHi), CA IX negative CCRF-CEM; format: cell-based, human; conditions: 50 μM acetazolamide, 24 hour incubation, control 7.362
Description: as §4, §5, §6

Row | Compound | IC50 [1] [nM] | IC50 [2] [nM] | Selectivity to hCA IX IC50 (hCA II)/IC50 (hCA IX) [2] | pHi (HCT116 cells; HCT116, 50 μM acetazolamide, 24 hour incubation, control 7.516) | intracellular acidification in HCT116 cells (HCT116 cells; carboranes 1 μM versus acetazolamide 50 μM) | pHi (CCRF-CEM cells)
1 | 1,1′-bis(3-sulfamoylpropyl)-3,3′-commo-bis(1,2-dicarba-3-cobalta(III)-closo-dodecabor)ate (1-) [CB-25] | 40 | 4 | 10 |  |  | 
2 | 1-(2-sulfonamidethyl)-1,2-dicarba-closo-dodecaborane [CB-23] | 400 | 380 | 1.05 |  |  | 
3 | 9-sulfamide-10′-amine-2,2′-commo-(1,7,9-tricarba-1′,7′, 10′-tricarba-2-ferra(H)-closo-dodekabor)ane [CB-11] | 83900 | 1500 | 55.9 |  |  | 
4 | CC(=O)Nc1nnc(S(N)(=O)=O)s1 [acetazolamide, reference compound] |  |  |  | 7.47 | mild intracellular acidification | 7.34

More lines, main results first:

Row | IC50 [1] [nM] | IC50 [2] [nM] | Selectivity to hCA IX IC50 (hCA II)/IC50 (hCA IX) [2] | Compound | pHi (HCT116 cells; HCT116, 50 μM acetazolamide, 24 hour incubation, control 7.516) | intracellular acidification in HCT116 cells (HCT116 cells; carboranes 1 μM versus acetazolamide 50 μM) | pHi (CCRF-CEM cells)
5 | 110 | 14 | 7.9 | 1-(3-sulfamoyl-propyl)-3,3′-commo-(decahydro-1,2-dicarba-3-cobalta(III)-undecahydro-1′,2″-dicarba-closo-dodecabor)ate (1-), sodium salt dihydrate [CB-26] |  |  | 
6 | 570 | 0.7 | 814 | 1-ethylenenesulfamide-3,3′-commo-bis(1,2-dicarba-3-cobalta(III)-closo-dodecabor)ate (1-) [CB-30] |  |  | 
7 | 3900 | 22 | 177 | 1-propylenesulfamide-3,3′-commo-bis(1,2-dicarba-3-cobalta(III)-closo-dodecabor)ate (1-) [CB-29] |  |  | 
